Results: PubChem BioAssay (NCI)
Where “and” joins values, the source holds several entries; their conditions need not be identical. Identical values can stand only once.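 Values below derive from 48-hour exposures of cells grown in 96-well plates, with endpoints linearly interpolated between the two concentrations bracketing the appropriate inhibition level. Here, GI50 denotes the concentration required for 50% inhibition of growth. TGI marks complete inhibition of growth.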

Legend:
Assay in all cases: inhibition of tumour cell growth, NCI panel, 48 h
[1] = test system: COLO 205 colon
[2] = test system: LOX IMVI melanoma
[3] = test system: MOLT-4 leukemia
[4] = test system: UO-31 renal
[5] = test system: OVCAR-8 ovarian
[6] = test system: M14 melanoma
[7] = test system: NCI-H460 lung
[8] = test system: SK-MEL-2 melanoma
[9] = test system: DU-145 prostate
[10] = test system: BT-549 breast

CCCCCCNC(=O)c1cnc(Cl)cn1
TGI [1]: 40 µM
TGI [2]: 27.7 µM
TGI [3]: 23.2 µM
TGI [4]: 3.24 µM
TGI [5]: 34.5 µM
TGI [6]: 26 µM
TGI [7]: 37.3 µM
TGI [8]: 31 µM
TGI [9]: 29.6 µM
TGI [10]: 82.4 µM

NC(N)=N/N=C/c1c(-c2ccccc2)nc2n1ccc1nc(-c3ccccc3)c(/C=N/N=C(N)N)n12
TGI [1]: > 100 µM
TGI [2]: > 100 µM
TGI [3]: > 100 µM
TGI [4]: > 100 µM
TGI [5]: > 100 µM
TGI [6]: > 100 µM
TGI [7]: > 100 µM
TGI [8]: > 100 µM
TGI [9]: > 100 µM
TGI [10]: > 100 µM

CN(C)CCCNc1ccc2ncn3c4ccccc4c(=O)c1c23
TGI [1]: 15 µM
TGI [2]: 13.7 µM
TGI [3]: 13 µM
TGI [4]: 52.3 µM
TGI [5]: 20 µM
TGI [6]: 41.6 µM
TGI [7]: 14.5 µM
TGI [8]: 26.8 µM

CC12CCC(C(=O)OC1=O)C(C)(C)O2 (stereo not given)
TGI [1]: > 100 µM
TGI [2]: > 100 µM
TGI [3]: > 100 µM
TGI [4]: > 100 µM
TGI [5]: > 100 µM
TGI [6]: > 100 µM
TGI [7]: > 100 µM
TGI [8]: > 100 µM
TGI [9]: > 100 µM
TGI [10]: > 100 µM

O=NC1C(Cl)C2CC1C1C(Br)C(Br)CC21 (stereo not given)
TGI [1]: > 100 µM
TGI [2]: > 100 µM
TGI [3]: > 100 µM
TGI [4]: > 100 µM
TGI [5]: > 100 µM
TGI [6]: > 100 µM
TGI [7]: > 100 µM
TGI [8]: > 100 µM
TGI [9]: > 100 µM

CC(=O)C(O)N1C(=O)C=CC1=O (stereo not given)
GI50 [4]: 2260 µM
TGI [7]: 25 µM and 34.8 µM and 33.1 µM
GI50 [9]: 11.7 mM
TGI [10]: 24.8 µM

C[C@@H]1CC[C@H]2C(COCCOCC3=C(C(F)(F)F)O[C@@H]4O[C@@]5(C)CC[C@H]6[C@H](C)CC[C@@H]3[C@@]46OO5)=C(C(F)(F)F)O[C@@H]3O[C@@]4(C)CC[C@@H]1[C@]32OO4
GI50 [1]: 18.8 nM
TGI [1]: 1.64 µM
GI50 [2]: 0.0641 µM
GI50 [3]: < 34.9 nM
TGI [3]: > 100 µM
GI50 [4]: 0.186 µM
TGI [4]: > 100 µM
GI50 [5]: < 0.0261 µM
TGI [5]: > 100 µM
GI50 [6]: 557 nM
TGI [6]: > 100 µM
GI50 [7]: < 20.2 nM
TGI [7]: > 100 µM
GI50 [8]: > 100 µM
TGI [8]: > 100 µM
GI50 [9]: > 0.1 mM
TGI [9]: > 100 µM
GI50 [10]: 224 nM
TGI [10]: > 100 µM

CN(C)c1ccc(/C=N\NC(=O)CSCC(=O)N/N=C/c2ccc(N(C)C)cc2)cc1
TGI [1]: > 100 µM
TGI [2]: > 100 µM
TGI [3]: > 100 µM
TGI [4]: > 100 µM
TGI [5]: > 100 µM
TGI [6]: > 100 µM
TGI [7]: > 100 µM
TGI [8]: > 100 µM
TGI [9]: > 100 µM
TGI [10]: 80.4 µM

COc1ccc([C@@H]2ON(C)[C@H]3CN(C)C(=O)[C@@H]23)cc1
TGI [1]: > 100 µM
TGI [2]: > 100 µM
TGI [3]: > 100 µM
TGI [4]: > 100 µM
TGI [5]: > 100 µM
TGI [6]: > 100 µM
TGI [7]: > 100 µM
TGI [8]: > 100 µM
TGI [9]: > 100 µM

Cc1ccccc1N=Nc1ccc(N=Nc2c(O)ccc3ccccc23)c(C)c1
TGI [1]: > 100 µM
TGI [2]: > 100 µM
TGI [3]: > 100 µM
TGI [4]: > 100 µM
TGI [5]: > 100 µM
TGI [6]: > 100 µM
TGI [8]: > 100 µM
TGI [9]: > 100 µM
TGI [10]: > 100 µM

C/C=C/[P+](c1ccccc1)(c1ccccc1)c1ccccc1
TGI [1]: 0.285 µM
TGI [2]: 7.26 µM
TGI [3]: 19.6 µM
TGI [4]: 88.6 µM
TGI [5]: 17.3 µM
TGI [6]: 27.2 µM
TGI [7]: 28.3 µM
TGI [8]: 29.1 µM
TGI [9]: 18.6 µM
TGI [10]: 3 µM

CC1C(O)C2(Oc3cc4c(c5c3[C@@H](CC5O)[C@H]2C)CCC2Cc3nc5c(nc3C[C@@]42C)CC2CCC3C4=C[C@H]6O[C@@]7(O[C@@](C)(CO)C[C@@H]7O)C(C)[C@@]6(O)[C@]4(C)[C@@H](O)CC3[C@]2(C)C5)OC1(C)C (stereo not given in full)
TGI [1]: 0.609 µM
TGI [2]: 0.892 µM
TGI [4]: 3.14 µM
TGI [5]: 1.36 µM
TGI [7]: 0.386 µM
TGI [8]: 0.611 µM

COc1ccc(N2C(=O)C3c4[nH]c5c(C)cccc5c4C4CCC(C(C)(C)C)CC4C3C2=O)cc1 (stereo not given)
TGI [1]: > 10 µM
TGI [2]: 4.17 µM
TGI [3]: > 10 µM
TGI [4]: > 10 µM
TGI [5]: > 10 µM
TGI [6]: > 10 µM
TGI [7]: 6.63 µM
TGI [8]: > 10 µM
TGI [9]: > 10 µM

CC1=C2C(=O)c3ccccc3C(=O)[C@H]2[C@H]2CCO[C@H]2O1
TGI [1]: > 100 µM
TGI [2]: 58.4 µM
TGI [3]: > 100 µM
TGI [4]: 35.7 µM
TGI [5]: 45.2 µM
TGI [6]: 40.2 µM
TGI [7]: 45.1 µM
TGI [8]: 36.6 µM
TGI [9]: 47 µM
TGI [10]: 28.2 µM

Cc1ccc(S(=O)(=O)NCCSCCNS(=O)(=O)c2ccc(C)cc2)cc1
TGI [1]: > 100 µM
TGI [2]: > 100 µM
TGI [3]: > 100 µM
TGI [4]: > 100 µM
TGI [5]: > 100 µM
TGI [6]: > 100 µM
TGI [7]: > 100 µM
TGI [9]: > 100 µM

O=c1ccc2cc(O)c(O)cc2o1
TGI [1]: > 100 µM
TGI [2]: > 100 µM
TGI [3]: > 100 µM
TGI [4]: > 100 µM
TGI [5]: > 100 µM
TGI [6]: > 100 µM
TGI [7]: > 100 µM
TGI [8]: > 100 µM
TGI [9]: > 100 µM
TGI [10]: > 100 µM

COc1ccc(-c2c3c(nc4nc(SCCc5ccccc5)nc(N)c24)CCCC3)cc1OC
TGI [1]: > 100 µM
TGI [2]: > 100 µM
TGI [3]: > 100 µM
TGI [4]: > 100 µM
TGI [5]: > 100 µM
TGI [6]: > 100 µM
TGI [7]: > 100 µM
TGI [9]: > 100 µM
TGI [10]: > 100 µM

Cc1c2cc[n+](CCN3CCCCC3)cc2c(C)c2c1[nH]c1ccc(O)cc12
GI50 [1]: 2570 nM
TGI [1]: 27.5 µM and > 24.2 µM
GI50 [2]: 8.69 µM
TGI [2]: 58.2 µM and 76.2 µM
GI50 [3]: 267 nM and 38.5 nM
TGI [3]: 8.96 µM and 5.96 µM
GI50 [4]: 9.25 µM
TGI [4]: 69.9 µM and 61.2 µM
GI50 [5]: 3.36 µM
TGI [5]: 30.6 µM and 44.7 µM
TGI [6]: 50.4 µM
GI50 [7]: 523 nM
TGI [7]: 10 µM and > 32.8 µM
GI50 [8]: 13.5 µM
TGI [8]: 35.5 µM and 36.3 µM
TGI [9]: 11.5 µM
TGI [10]: 28.7 µM

CCCCCCCSc1nc2c(C(=O)OCC)ncn2c2ccccc12
TGI [1]: > 100 µM
TGI [2]: > 100 µM
TGI [3]: > 100 µM
TGI [4]: > 100 µM
TGI [5]: > 100 µM
TGI [6]: > 100 µM
TGI [7]: > 100 µM
TGI [8]: > 100 µM

CN(C)CCNc1nc(-c2ccc3ccccc3c2)nc2nc[nH]c12
TGI [1]: 21.7 µM
TGI [2]: 18.8 µM
TGI [3]: 18.6 µM
TGI [4]: 12.9 µM
TGI [5]: 24.4 µM
TGI [6]: 23.6 µM
TGI [7]: 15.6 µM
TGI [8]: 28.1 µM
TGI [9]: 23.7 µM
TGI [10]: 23.4 µM

CN1CCCCC1CCN1CCCCC1 (stereo not given)
TGI [1]: > 100 µM
TGI [2]: > 100 µM
TGI [3]: > 100 µM
TGI [4]: > 100 µM
TGI [5]: > 100 µM
TGI [6]: > 100 µM
TGI [7]: > 100 µM
TGI [8]: > 100 µM
TGI [9]: > 100 µM
TGI [10]: > 100 µM
